Test results: patent US20250319032A1, “PHARMACEUTICAL COMPOSITIONS OF RIBOCICLIB” (Novartis AG, priority 2024, published 2025)

Columns and labels:
[1] = DMP433 (N-nitroso-ribociclib) content in ribociclib base (B10) and ribociclib succinate (B12, drug substance) batches and process experiments, LC-MS/MS or HPLC-HRMS; type: physicochemical; details: for DMP433 [ppm] LOQ (0.0625 ppm) / DMP433 [ppm], result in brackets (extrapolation, estimate of actual value below LOQ): ribociclib base (LEE011 B10); for DMP433 (LOQ: 30 ppb): LEE011-B10, laboratory scale 30 g experiments; for DMP433 in LEE011 B12: laboratory scale salt formation; for DMP433 in LEE011-B12 (IP): nitrite in IPA 1.6 ppb
From the text: The method of testing for the presence and/or total amount of nitrosamines (such as the presence and/or total amount of N-nitroso-ribociclib in free or salt form) that is used in the methods of the invention may be any method which allows for the detection of nitrosamines in a composition. For example, the method may involve the Griess test described above. In such a method, the nitrosamines may be first denitrosated (e.g., by photolysis) to form a nitrite, which is then detected in the Griess test. Alternatively, the method may include high performance liquid chromatography (HPLC)- and/or gas chromatography (GC)-mass spectroscopy. An example of a method of testing for the presence and amount of nitrosamines (namely N-nitroso-ribociclib) is provided herein as Example 14. […]
2.7. […] Dissolve the substance using vortex and fill to volume with solvent (50% MeOH). • 3. Filter through 0.2 μm PVDF (polyvinylidene difluoride) or PTFE (polytetrafluoroethylene) filter into a HPLC amber vial, discard the first 0.5 ml.
A calibration curve for DMP433 is created, using calibration standard solutions L1-L6, and expressing the relationship between responses (peak areas) and standard concentrations (ng/ml). For L1, the average of 6 injections is used. Linear regression is weighed with 1/amount. […]

[2] = Nitrite content (ion chromatography; LC-FLD with DAN derivatisation; Griess test) in drug substance, intermediates, reagents, solvents, filters, excipients; type: physicochemical; details: for Nitrite (LOQ: 0.1 ppm) / Nitrite, value in brackets below LOQ: LEE011-B10, laboratory scale 30 g experiments; for Nitrite (ppb): LEE011-DS, further testing; for Nitrite in LEE011 B12: laboratory scale salt formation
Procedure, shortened: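 Nitrite measured by Griess reaction (sulfanilamide diazotisation, N-(1-naphthyl)ethylenediamine azo coupling, spectrophotometric read) or by DAN derivatisation with C18 HPLC-fluorescence (10 mM KH2PO4 pH 8.0/methanol). About 1000 mg sample in 10 mL methanol/water 1:1; comparison standard ≈100 ppb nitrite.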

[3] = ribociclib base (LEE011 B10), ion chromatography
[4] = laboratory use test, salt formation B10 to B12 with filter parts added (filter per experiment), AS&T LJ LC-MS/MS
[5] = laboratory use test, salt formation B10 to B12 with filter parts added, QLS LJ LC-FLD/DAN
[6] = additional batches of ribociclib base LEE011-B10 (IP-1)
[7] = starting material used in the theoretical calculation
[8] = Raybow batch 805193A078, starting material of resin loading experiments
[9] = nitrite in iPrOH <5 ppb (1.3 ppb extrapolated)
[10] = nitrite in iPrOH <5 ppb (3.1 ppb extrapolated)

In the case of `CN(C)C(=O)c1cc2cnc(Nc3ccc(N4CCNCC4)cn3)nc2n1C1CCCC1` [Batch 805193A074], the “DMP433 [ppm] LOQ (0.0625 ppm)” value [1] was “LOQ”, the “DMP433 [ppm], result in brackets (extrapolation, estimate of actual value below LOQ)” value (“DMP433 [ppm], result in brackets” below) [1] was 0.029 ppm and the “Nitrite [ppm] LOD (1 ppm)” value [2, 3] was “<LOD”.
In the case of `CN(C)C(=O)c1cc2cnc(Nc3ccc(N4CCNCC4)cn3)nc2n1C1CCCC1` [Batch 923037A002], the “DMP433 [ppm] LOQ (0.0625 ppm)” value [1] was “LOQ”, the “DMP433 [ppm], result in brackets” value [1] was 0.047 ppm and the “Nitrite [ppm] LOD (1 ppm)” value [2, 3] was “<LOD”.
For `CN(C)C(=O)c1cc2cnc(Nc3ccc(N4CCNCC4)cn3)nc2n1C1CCCC1` [Batch 805193A072], the “DMP433 [ppm] LOQ (0.0625 ppm)” value [1] was “LOQ”, the “DMP433 [ppm], result in brackets” value [1] was 0.060 ppm and the “Nitrite [ppm] LOD (1 ppm)” value [2, 3] was “<LOD”.
In the case of `CN(C)C(=O)c1cc2cnc(Nc3ccc(N4CCNCC4)cn3)nc2n1C1CCCC1.O=C(O)CCC(=O)O` [LEE011-cusakal1-036], the “DMP433 [ppm]” value [1, 4] was 2.100 ppm and the “Nitrite [ppm]” value [2, 5] was “app. 0.3 ppm”.
With `CN(C)C(=O)c1cc2cnc(Nc3ccc(N4CCNCC4)cn3)nc2n1C1CCCC1` [Batch 805193A096] the “DMP433 (LOQ: 30 ppb)” value [1] was 70.5 ppb, the “Nitrite (LOQ: 0.1 ppm)” value [2] was < 0.1 ppm and the “Nitrite, value in brackets below LOQ” value [2] was 0.05 ppm.
In the case of `CN(C)C(=O)c1cc2cnc(Nc3ccc(N4CCNCC4)cn3)nc2n1C1CCCC1.O=C(O)CCC(=O)O` [LEE011-cusakan1-050], the “DMP433 [ppm]” value [1, 4] was 0.530 ppm and the “Nitrite [ppm]” value [2, 5] was “app. 0.6 ppm”.
In the case of `CN(C)C(=O)c1cc2cnc(Nc3ccc(N4CCNCC4)cn3)nc2n1C1CCCC1` [Batch 805193A098], the “DMP433 (LOQ: 30 ppb)” value [1] was 78.8 ppb, the “Nitrite (LOQ: 0.1 ppm)” value [2] was < 0.1 ppm and the “Nitrite, value in brackets below LOQ” value [2] was 0.07 ppm.
In the case of `CN(C)C(=O)c1cc2cnc(Nc3ccc(N4CCNCC4)cn3)nc2n1C1CCCC1` [Batch 805193A073], the “DMP433 [ppm] LOQ (0.0625 ppm)” value [1] was “LOQ”, the “DMP433 [ppm], result in brackets” value [1] was 0.030 ppm and the “Nitrite [ppm] LOD (1 ppm)” value [2, 3] was “<LOD”.
For `CN(C)C(=O)c1cc2cnc(Nc3ccc(N4CCNCC4)cn3)nc2n1C1CCCC1` [Batch B705468], the “DMP433 [ppb]” value [1, 6] was 130 ppb, the “DMP433 [ppm]” value [1, 7] was 0.03 ppm and the “Nitrite [ppm] LOD (1 ppm)” value [2, 6] was “<LOD”. For the same molecule, the “Nitrite [ppm]” value [2, 7] was <0.1 ppm.
For `CN(C)C(=O)c1cc2cnc(Nc3ccc(N4CCNCC4)cn3)nc2n1C1CCCC1` [Batch 805193A077], the “DMP433 [ppb]” value [1, 6] was 51 ppb and the “Nitrite [ppm] LOD (1 ppm)” value [2, 6] was “<LOD”.
In the case of `CN(C)C(=O)c1cc2cnc(Nc3ccc(N4CCNCC4)cn3)nc2n1C1CCCC1.O=C(O)CCC(=O)O` [Batch 833268A258], the “DMP433 [ppb]” value ([1]; LEE011-DS, further testing) was 380 ppb and the “Nitrite (ppb)” value [2] was 369 ppb.
In the case of `CN(C)C(=O)c1cc2cnc(Nc3ccc(N4CCNCC4)cn3)nc2n1C1CCCC1` [Batch 805193A097], the “DMP433 (LOQ: 30 ppb)” value [1] was 73.9 ppb, the “Nitrite (LOQ: 0.1 ppm)” value [2] was < 0.1 ppm and the “Nitrite, value in brackets below LOQ” value [2] was 0.07 ppm.
With `CN(C)C(=O)c1cc2cnc(Nc3ccc(N4CCNCC4)cn3)nc2n1C1CCCC1.O=C(O)CCC(=O)O` [LEE011-cusakal1-034] the “DMP433 [ppm]” value [1, 4] was 1.789 ppm and the “Nitrite [ppm]” value [2, 5] was “app. 0.2 ppm”.
For `CN(C)C(=O)c1cc2cnc(Nc3ccc(N4CCNCC4)cn3)nc2n1C1CCCC1` [Batch 805193A095], the “DMP433 (LOQ: 30 ppb)” value [1] was 55.8 ppb, the “Nitrite (LOQ: 0.1 ppm)” value [2] was < 0.1 ppm and the “Nitrite, value in brackets below LOQ” value [2] was 0.08 ppm.
With `CN(C)C(=O)c1cc2cnc(Nc3ccc(N4CCNCC4)cn3)nc2n1C1CCCC1.O=C(O)CCC(=O)O` [LEE011-cusakal1-021] the “DMP433 [ppm]” value [1, 4] was 1.682 LJ ppm and the “Nitrite [ppm]” value [2, 5] was “app. 0.26 ppm”.
In the case of `CN(C)C(=O)c1cc2cnc(Nc3ccc(N4CCNCC4)cn3)nc2n1C1CCCC1.O=C(O)CCC(=O)O` [LEE011-cusakal1-033], the “DMP433 [ppm]” value [1, 4] was 1.272 ppm and the “Nitrite [ppm]” value [2, 5] was “app. 0.3 ppm”.
For `CN(C)C(=O)c1cc2cnc(Nc3ccc(N4CCNCC4)cn3)nc2n1C1CCCC1` [Batch 923037A005], the “DMP433 [ppm] LOQ (0.0625 ppm)” value [1] was “LOQ”, the “DMP433 [ppm], result in brackets” value [1] was 0.048 ppm and the “Nitrite [ppm] LOD (1 ppm)” value [2, 3] was “<LOD”.
In the case of `CN(C)C(=O)c1cc2cnc(Nc3ccc(N4CCNCC4)cn3)nc2n1C1CCCC1` [LEE011-cusakal1-032], the “DMP433 [ppm]” value [1, 4] was 1.487 ppm and the “Nitrite [ppm]” value [2, 5] was “app. 0.3 ppm”.
In the case of `CN(C)C(=O)c1cc2cnc(Nc3ccc(N4CCNCC4)cn3)nc2n1C1CCCC1.O=C(O)CCC(=O)O` [LEE011-cusakal1-035], the “DMP433 [ppm]” value [1, 4] was 1.661 ppm and the “Nitrite [ppm]” value [2, 5] was “app. 0.2 ppm”.
In the case of `CN(C)C(=O)c1cc2cnc(Nc3ccc(N4CCNCC4)cn3)nc2n1C1CCCC1` [Ribociclib, 7-cyclopentyl-N, N-dimethyl-2-{[5-(piperazin-1-yl)pyridin-2-yl]amino}-7H-pyrrolo[2,3-d]pyrimidine-6-carboxamide], the “DMP433 in LEE011-B10” value [1, 8] was 92 ppb, the “DMP433, best result” value ([1]; isopropanol distilled over ascorbic acid, B10 added last) was 0.34 ppm and the “Nitrite in LEE011-B10” value [2, 8] was 257 ppb.
For `CN(C)C(=O)c1cc2cnc(Nc3ccc(N4CCNCC4)cn3)nc2n1C1CCCC1.O=C(O)CCC(=O)O` [Batch 833268A259], the “DMP433 [ppb]” value ([1]; LEE011-DS, further testing) was 395 ppb and the “Nitrite (ppb)” value [2] was 284 ppb.
In the case of `CN(C)C(=O)c1cc2cnc(Nc3ccc(N4CCNCC4)cn3)nc2n1C1CCCC1` [Batch 805193A078], the “DMP433 in LEE011-B10” value ([1]; B10 starting material of resin experiments) was “DMP433: 92 ppb”, the “DMP433 [ppb]” value [1, 6] was 78 ppb and the “DMP433 in LEE011 B12” value ([1]; nitrite in iPrOH 119.6 ppb) was 14238 ppb. The “DMP433 in LEE011 B12” value ([1]; nitrite in iPrOH 162.7 ppb) was 18011 ppb, the “DMP433 in LEE011 B12” value [1, 9] was 995 ppb and the “DMP433 in LEE011 B12” value [1, 10] was 1513 ppb. The “DMP433 in LEE011-B12 (IP)” value ([1]; resin treatment of B10/IPA solution) was 220 ppb, the “DMP433 in LEE011-B12 (IP)” value ([1]; resin treatment only IPA (nitrite carryover from B10 remained)) was 528 ppb and the “Nitrite [ppm] LOD (1 ppm)” value [2, 6] was “<LOD”. For the same molecule, the “Nitrite in LEE011 B12” value [2, 9] was 448 ppb and the “Nitrite in LEE011 B12” value [2, 10] was 326 ppb.
In the case of `CN(C)C(=O)c1cc2cnc(Nc3ccc(N4CCNCC4)cn3)nc2n1C1CCCC1` [Batch B704193], the “DMP433 [ppb]” value [1, 6] was 57 ppb, the “DMP433 [ppm] LOQ (0.0625 ppm)” value [1] was “LOQ” and the “DMP433 [ppm], result in brackets” value [1] was 0.006 ppm. For the same molecule, the “Nitrite [ppm] LOD (1 ppm)” value [2, 6] was “<LOD”.
With `CN(C)C(=O)c1cc2cnc(Nc3ccc(N4CCNCC4)cn3)nc2n1C1CCCC1` [LEE011-B10 24003] the “DMP433 (ppm) in B10” value ([1]; B10 batches on commercial scale, potassium carbonate of different nitrite level) was 0.05 ppm and the “Nitrite [ppm]” value ([2]; in B10 batches on commercial scale, potassium carbonate of different nitrite level) was 0.1 ppm.
In the case of `CN(C)C(=O)c1cc2cnc(Nc3ccc(N4CCNCC4)cn3)nc2n1C1CCCC1` [Batch B705465], the “DMP433 [ppm] LOQ (0.0625 ppm)” value [1] was “LOQ” and the “DMP433 [ppm], result in brackets” value [1] was 0.037 ppm.
